Source: patent US8518952B2, “6 substituted 2-heterocyclylamino pyrazine compounds as CHK-1 inhibitors” (Pfizer Inc., priority 2008, dated 2013)
Structures can show the parent of a compound that is named as a salt.

Molecular target: T1, CHK1 (kinase domain) (Homo sapiens, UniProt O14757)
T1 construct: a solution containing 1 nM of CHK1 (kinase domain)
T1 sequence (O14757 9-265 limits assumed): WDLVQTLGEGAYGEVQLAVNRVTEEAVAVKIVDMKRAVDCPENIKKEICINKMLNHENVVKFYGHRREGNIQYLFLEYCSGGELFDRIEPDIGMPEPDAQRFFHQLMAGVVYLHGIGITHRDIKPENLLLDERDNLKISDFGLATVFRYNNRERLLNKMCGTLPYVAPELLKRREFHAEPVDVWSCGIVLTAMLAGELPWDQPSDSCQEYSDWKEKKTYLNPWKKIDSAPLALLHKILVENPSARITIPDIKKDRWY
Assay: CHK1 Ki determination, spectrophotometric coupled (pyruvate kinase/lactate dehydrogenase) assay
Type: biochemical
Conditions: CHK-1 kinase domain; for Ki: 150 uM ATP, 125 uM Syntide 2; for percent inhibition (where no Ki data is available): inhibitor concentration not given
Protocol: After 15 min pre-incubation, the enzymatic reaction was initiated by the simultaneous addition of Syntide 2 peptide (125 uM, final concentration) and ATP (150 uM, final concentration). The kinase-catalyzed production of ADP from ATP that accompanied phosphoryl transfer to the substrate Syntide 2 was coupled to the oxidation of NADH through the activities of pyruvate kinase and lactate dehydrogenase. NADH conversion to NAD^+ was monitored by the decrease in absorbance at 340 nm (ε=6.22 cm^−1 mM^−1) using a microplate reader from Molecular Devices Spectormax Plus (Sunnyvale, Calif.) or BMG LABTECH Inc (Offenburg, Germany).
The inhibition of CHK1 was analyzed by fitting the data to the following equation to determine Kiapp:
[formula] where [E]o and [I]o are the active enzyme and inhibitor concentration, respectively; Ki is the inhibition binding constant and Km the Michaelis-Menten constant for ATP; Vi and Vo are the rates of substrate oxidation in the presence of and in the absence of inhibitor, respectively. EC50 Determination (Cellular Assay)
Under the “Ki” column, data entries in the format of “%” are percent inhibition data where no Ki data is available. Data entry under the “EC50” column with an * are data obtained using Mia Paca-2 cells rather than HeLa cells. Data is not available where noted as n/a.

Ki [nM]	percent inhibition (where no Ki data is available)	Structure (SMILES)
585		F[C@@H]1CNC[C@@H]1Nc1cncc(-c2cnn3ccccc23)n1 (relative stereo) [Example 45, Cis N-[4-fluoropyrrolidin-3-yl]-6-pyrazolo [1,5-a]pyridin-3-ylpyrazin-2-amine]
	0%	Cc1cccc2ncc(-c3cncc(N[C@@H]4CCNC4)n3)n12 [Example 58, 6-(5-Methylimidazo[1,2-a]pyridin-3-yl)-N-[(3R)-pyrrolidin-3-yl]pyrazin-2-amine]
	35.5%^	c1ccc2c(c1)ncn2-c1cncc(N[C@H]2CCCNC2)n1 [Example 63, 6-(1H-benzimidazol-1-yl)-N-[(3S)-piperidin-3-yl]pyrazin-2-amine]
	0%	Cc1ncc(-c2cncc(N[C@@H]3CC[C@@H](C)NC3)n2)n1Cc1ccccc1 [Example 68, 6-(1-benzyl-2-methyl-1H-imidazol-5-yl)-N-[(3R,6R)-6-methylpiperidin-3-yl]pyrazin-2-amine]
	0.60%^	Cc1ncc(-c2cncc(NC3CCCCNC3)n2)n1C (centres unmarked) [Example 69, N-[6-(1,2-dimethyl-1H-imidazol-5-yl)pyrazin-2-yl]azepan-3-amine]
	0%	Cc1ncc(-c2cncc(N[C@@H]3CC[C@H](C)NC3)n2)n1C [Example 70, 6-(1,2-dimethyl-1H-imidazol-5-yl)-N-[(3R,6S)-6-methylpiperidin-3-yl]pyrazin-2-amine]
	0%	Cc1ncc(-c2cncc(N[C@@H]3CC[C@@H](C)NC3)n2)n1C [Example 71, 6-(1,2-dimethyl-1H-imidazol-5-yl)-N-[(3R,6R)-6-methylpiperidin-3-yl]pyrazin-2-amine]
	1.4%^	Cc1ncc(-c2cncc(N[C@@H]3CCCNC3)n2)n1Cc1ccccc1 [Example 72, 6-(1-benzyl-2-methyl-1H-imidazol-5-yl)-N-[(3R)-piperidin-3-yl]pyrazin-2-amine]
	0%	Cc1ncc(-c2cncc(N[C@@H]3CCNC3)n2)n1C [Example 73, 6-(1,2-dimethyl-1H-imidazol-5-yl)-N-[(3R)-pyrrolidin-3-yl]pyrazin-2-amine]
	5.8%^	Cc1ncc(-c2cncc(NC3CCCCNC3)n2)n1Cc1ccccc1 (centres unmarked) [Example 74, N-[6-(1-benzyl-2-methyl-1H-imidazol-5-yl)pyrazin-2-yl]azepan-3-amine]
	6.7%^	Cc1ncc(-c2cncc(N[C@@H]3CCNC3)n2)n1Cc1ccccc1 [Example 75, 6-(1-benzyl-2-methyl-1H-imidazol-5-yl)-N-[(3R)-pyrrolidin-3-yl]pyrazin-2-amine]
	1.6%^	Cc1ncc(-c2cncc(N[C@@H]3CNC[C@@H]3F)n2)n1C [Example 76, 6-(1,2-dimethyl-1H-imidazol-5-yl)-N-[(3R,4S)-4-fluoropyrrolidin-3-yl]pyrazin-2-amine]
	0%	Cc1ncc(-c2cncc(N[C@H]3CNC[C@@H]3F)n2)n1C [Example 77, 6-(1,2-dimethyl-1H-imidazol-5-yl)-N-[(3S,4S)-4-fluoropyrrolidin-3-yl]pyrazin-2-amine]
1000		c1cnn2c(-c3cncc(NC4CCCCNC4)n3)cnc2c1 (centres unmarked) [Example 80, N-(6-imidazo[1,2-b]pyridazin-3-ylpyrazin-2-yl)azepan-3-amine, acetate salt]
1000		F[C@@H]1CNC[C@@H]1Nc1cncc(-c2cnc3cccnn23)n1 [Example 81, N-[(3S,4R)-4-fluoropyrrolidin-3-yl]-6-imidazo[1,2-b]pyridazin-3-ylpyrazin-2-amine, acetate salt]
1000		F[C@@H]1CNC[C@H]1Nc1cncc(-c2cnc3cccnn23)n1 [Example 82, N-[(3R,4R)-4-fluoropyrrolidin-3-yl]-6-imidazo[1,2-b]pyridazin-3-ylpyrazin-2-amine]
1000		C[C@H]1CC[C@@H](Nc2cncc(-c3cnc4cccnn34)n2)CN1 [Example 83, 6-imidazo[1,2-b]pyridazin-3-yl-N-[(3R,6S)-6-methylpiperidin-3-yl]pyrazin-2-amine, acetate salt]
1000		C[C@@H]1CC[C@@H](Nc2cncc(-c3cnc4cccnn34)n2)CN1 [Example 84, 6-imidazo[1,2-b]pyridazin-3-yl-N-[(3R,6R)-6-methylpiperidin-3-yl]pyrazin-2-amine, acetate salt]
37.5		C[C@@H]1NCCC[C@H]1Nc1cncc(-c2cnc3ccc(F)cn23)n1 [Example 95, 6-(6-fluoroimidazo[1,2-a]pyridin-3-yl)-N-[(2S,3R)-2-methylpiperidin-3-yl]pyrazin-2-amine]
	0%	C[C@@H]1NCCC[C@H]1Nc1cncc(-c2cnc3ccccn23)n1 [Example 131, 6-imidazo[1,2-a]pyridin-3-yl-N-[(2S,3R)-2-methylpiperidin-3-yl]pyrazin-2-amine]
21.4		Cc1cn2c(-c3cncc(N[C@@H]4CCCN[C@H]4C)n3)cnc2s1 [Example 133, 6-(2-methylimidazo[2,1-b][1,3]thiazol-5-yl)-N-[(2S,3R)-2-methylpiperidin-3-yl]pyrazin-2-amine]
	2.2%^	Cc1nc2ccccn2c1-c1cncc(N[C@@H]2CCCNC2)n1 [Example 153, 6-(2-methylimidazo[1,2-a]pyridin-3-yl)-N-[(3R)-piperidin-3-yl]pyrazin-2-amine]
18.4		C[C@H]1NCCC[C@H]1Nc1cncc(-c2cnc3ccc(F)cn23)n1 [Example 164, 6-(6-fluoroimidazo[1,2-a]pyridin-3-yl)-N-[(2R,3R)-2-methylpiperidin-3-yl]pyrazin-2-amine]
	49.1%^	Cc1cn2c(-c3cncc(N[C@H]4CCCN[C@@H]4C)n3)cnc2s1 [Example 177, 6-(2-methylimidazo[2,1-b][1,3]thiazol-5-yl)-N-[(2R,3S)-2-methylpiperidin-3-yl]pyrazin-2-amine]
	98.9%^	FC[C@@H]1CNC[C@@H]1Nc1cncc(-c2cnc3sccn23)n1 [Example 182, N-[(3R,4R)-4-(fluoromethyl)pyrrolidin-3-yl]-6-(imidazo[2,1-b][1,3]thiazol-5-yl)pyrazin-2-amine]
	21%	Cc1cccn2c(-c3cncc(N[C@@H]4CCCNC4)n3)cnc12 [Example 207, 6-(8-methylimidazo[1,2-a]pyridin-3-yl)-N-[(3R)-piperidin-3-yl]pyrazin-2-amine]
195		c1ccc2c(c1)ncn2-c1cncc(NC2CCNC2)n1 (centres unmarked) [Example 208, 6-(1H-benzimidazol-1-yl)-N-(pyrrolidin-3-yl)pyrazin-2-amine]
2.85		COc1ccn2c(-c3cncc(N[C@H]4CNC[C@H]4C4CCCC4)n3)cnc2c1 [Example 210, N-[(3R,4R)-4-cyclopentylpyrrolidin-3-yl]-6-(7-methoxyimidazo[1,2-a]pyridin-3-yl)pyrazin-2-amine]

Structure (SMILES)	Ki [nM]	percent inhibition (where no Ki data is available)
c1ccn2c(-c3cncc(N[C@@H]4CCCNC4)n3)nnc2c1 [Example 8, N-[(3R)-piperidin-3-yl]-6-[1,2,4]triazolo[4,3-a]pyridin-3-ylpyrazin-2-amine]		16.7%^
